From patent US20230085307A1, “PYRIDAZINONE COMPOUND AND HERBICIDE” (NISSAN CHEMICAL CORPORATION, priority 2019, published 2023)

Experiments:
blackgrass [1] = test: Test Example 4: herbicidal effect by soil treatment (Table 19, symbol J); assay type: in vivo, blackgrass (Alopecurus myosuroides); settings: AAH 320 g/ha
In short: (§1)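 Soil-surface application: an emulsion agent diluted with water to the predetermined dose is sprayed uniformly over seeds lying under roughly 1.5 cm of sterilized diluvial soil. Boxes stay in a greenhouse at 25° C. to 30° C. Three weeks later, each species is graded on previously defined criteria.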

persian speedwell [2] = test: Test Example 5: herbicidal effect by foliage application, plastic box (Table 20, symbol R); assay type: in vivo, Persian speedwell (Veronica persica); settings: foliage application; for R: persian speedwell, herbicidal effect: AAH 320 g/ha, three weeks after application; for effect on persian speedwell (R): 320 g/ha, 3 weeks after application
In short: (§2)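 Sow seeds spot-wise in sterilized diluvial soil; cover with ~1.5 cm soil. Grow 14 days in greenhouse, 25° C. to 30° C. Spray foliage with emulsion diluted to predetermined amount. Rate effect after 3 weeks.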

velvetleaf [3] = test: Test Example 4: herbicidal effect by soil treatment (Table 19, symbol M); assay type: in vivo, velvetleaf (Abutilon theophrasti); settings: AAH 320 g/ha
In short: as §1

green foxtail [4] = test: Test Example 4: herbicidal effect by soil treatment (Table 19, symbol G); assay type: in vivo, green foxtail (Setaria viridis); settings: AAH 320 g/ha
In short: as §1

blackgrass [5] = test: Test Example 5: herbicidal effect by foliage application, plastic box (Table 20, symbol J); assay type: in vivo, blackgrass (Alopecurus myosuroides); settings: foliage application; for J: blackgrass, herbicidal effect: AAH 320 g/ha, three weeks after application; for effect on blackgrass (J): 320 g/ha, 3 weeks after application
In short: as §2

Japanese bulrush [6] = test: Test Example 1: herbicidal activity, application before weed generation under submerged conditions (Table 16, symbol B); assay type: in vivo, Japanese bulrush (Schoenoplectus juncoides); settings: 320 g/ha applied herbicide
In short: (§3)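 Alluvial soil was flooded to 4 cm depth, weed seeds were sown mixed and 2.5-leaf rice seedlings were transplanted. On sowing day, the compound's emulsion, diluted in water to a set dose, was applied to the water surface. Plants grew at 25–30 °C and were scored 0–5 after three weeks.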

oval-leafed pondweed [7] = test: Test Example 2: herbicidal activity, application during weed generation under submerged conditions (Table 17, symbol C); assay type: in vivo, oval-leafed pondweed (Monochoria vaginalis); settings: AAH 320 g/ha; application during weed generation, submerged conditions
In short: (§4)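 Mixed weed seedlings in alluvial soil under a 4 cm water layer, greenhouse-grown at 25–30° C. Compound given as a diluted emulsion into the floodwater at the 1–2 leaf stage; response graded after three weeks.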

windgrass = test: Test Example 5: herbicidal effect by foliage application, plastic box (Table 20, symbol L); assay type: in vivo, windgrass (Apera spica-venti); settings: foliage application; for L: windgrass, herbicidal effect: AAH 320 g/ha, three weeks after application; for effect on windgrass (L): 320 g/ha, 3 weeks after application
In short: as §2

persian speedwell [8] = test: Test Example 4: herbicidal effect by soil treatment (Table 19, symbol R); assay type: in vivo, Persian speedwell (Veronica persica); settings: AAH 320 g/ha
In short: as §1

southern crabgrass = test: Test Example 5: herbicidal effect by foliage application, plastic box (Table 20, symbol F); assay type: in vivo, southern crabgrass (Digitaria ciliaris); settings: foliage application; for F: southern crabgrass, herbicidal effect: AAH 320 g/ha, three weeks after application; for effect on southern crabgrass (F): 320 g/ha, 3 weeks after application
In short: as §2

velvetleaf [9] = test: Test Example 5: herbicidal effect by foliage application, plastic box (Table 20, symbol M); assay type: in vivo, velvetleaf (Abutilon theophrasti); settings: foliage application; for M: velvetleaf, herbicidal effect: AAH 320 g/ha, three weeks after application; for effect on velvetleaf (M): 320 g/ha, 3 weeks after application
In short: as §2

oval-leafed pondweed [10] = test: Test Example 1: herbicidal activity, application before weed generation under submerged conditions (Table 16, symbol C); assay type: in vivo, oval-leafed pondweed (Monochoria vaginalis); settings: 320 g/ha applied herbicide
In short: as §3

barnyard grass [11] = test: Test Example 4: herbicidal effect by soil treatment (Table 19, symbol H); assay type: in vivo, barnyard grass (Echinochloa crus-galli); settings: AAH 320 g/ha
In short: as §1

Japanese bulrush [12] = test: Test Example 2: herbicidal activity, application during weed generation under submerged conditions (Table 17, symbol B); assay type: in vivo, Japanese bulrush (Schoenoplectus juncoides); settings: AAH 320 g/ha; application during weed generation, submerged conditions
In short: as §4

redroot pigweed = test: Test Example 4: herbicidal effect by soil treatment (Table 19, symbol N); assay type: in vivo, redroot pigweed (Amaranthus retroflexus); settings: AAH 320 g/ha
In short: as §1

green foxtail [13] = test: Test Example 5: herbicidal effect by foliage application, plastic box (Table 20, symbol G); assay type: in vivo, green foxtail (Setaria viridis); settings: foliage application; for G: green foxtail, herbicidal effect: AAH 320 g/ha, three weeks after application; for effect on green foxtail (G): 320 g/ha, 3 weeks after application
In short: as §2

barnyard grass [14] = test: Test Example 3: herbicidal effect by foliage application, Wagner pot (Table 18, symbol H); assay type: in vivo, barnyard grass (Echinochloa crus-galli); settings: 320 g/ha
In short: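 Plants were sown in alluvial soil held under 0.1–0.5 cm standing water and grown 14 days in a greenhouse at 25–30 °C. An emulsifiable formulation, water-diluted to the set dose, was then sprayed onto the foliage, and effects were scored three weeks later using previously defined criteria.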

Row | SMILES | J: blackgrass, herbicidal effect rating (blackgrass [1]) | R: persian speedwell, herbicidal effect (persian speedwell [2]) | M: velvetleaf, herbicidal effect rating (velvetleaf [3]) | G: green foxtail, herbicidal effect rating (green foxtail [4]) | J: blackgrass, herbicidal effect (blackgrass [5]) | Herbicidal effect on B: Japanese bulrush (grade 0-5) (Japanese bulrush [6]) | herbicidal effect rating, C: oval-leafed pondweed (oval-leafed pondweed [7]) | L: windgrass, herbicidal effect (windgrass) | R: persian speedwell, herbicidal effect rating (persian speedwell [8]) | F: southern crabgrass, herbicidal effect (southern crabgrass) | M: velvetleaf, herbicidal effect (velvetleaf [9]) | Herbicidal effect on C: oval-leafed pondweed (grade 0-5) (oval-leafed pondweed [10]) | H: barnyard grass, herbicidal effect rating (barnyard grass [11]) | herbicidal effect rating, B: Japanese bulrush (Japanese bulrush [12]) | N: redroot pigweed, herbicidal effect rating (redroot pigweed) | G: green foxtail, herbicidal effect (green foxtail [13]) | herbicidal effect on H (barnyard grass), rating 0-5 (barnyard grass [14]) | effect on persian speedwell (R) (persian speedwell [2]) | effect on blackgrass (J) (blackgrass [5]) | effect on windgrass (L) (windgrass) | also measured
1 | Cc1nn(C)c(=O)c(-c2c(-c3ccc(OCC(F)(F)F)cc3)sc3ccccc23)c1O [1-140] | 0 (Herbicidal rate of 5% or less (almost no effect)) | 5 (Herbicidal rate of 90% or more (almost completely withered)) | 5 (Herbicidal rate of 90% or more (almost completely withered)) | 5 (Herbicidal rate of 90% or more (almost completely withered)) | 4 (Herbicidal rate of 70% or more and less than 90%) | 2 (Herbicidal rate of 20% or more and less than 40%) | 0 (Herbicidal rate of 5% or less (almost no effect)) | 3 (Herbicidal rate of 40% or more and less than 70%) | 5 (Herbicidal rate of 90% or more (almost completely withered)) | 4 (Herbicidal rate of 70% or more and less than 90%) | 4 (Herbicidal rate of 70% or more and less than 90%) | 0 (Herbicidal rate of 5% or less (almost no effect)) | 5 (Herbicidal rate of 90% or more (almost completely withered)) | 3 (Herbicidal rate of 40% or more and less than 70%) | 5 (Herbicidal rate of 90% or more (almost completely withered)) | 5 (Herbicidal rate of 90% or more (almost completely withered)) | 5 (Herbicidal rate of 90% or more (almost completely withered)) |  |  |  | 
2 | Cc1nn(C)c(=O)c(-c2c(-c3ccc([N+](=O)[O-])cc3)sc3ccccc23)c1O [1-151] | 0 (Herbicidal rate of 5% or less (almost no effect)) | 5 (Herbicidal rate of 90% or more (almost completely withered)) | 0 (Herbicidal rate of 5% or less (almost no effect)) | 0 (Herbicidal rate of 5% or less (almost no effect)) | 0 (Herbicidal rate of 5% or less (almost no effect)) | 3 (Herbicidal rate of 40% or more and less than 70%) | 0 (Herbicidal rate of 5% or less (almost no effect)) | 0 (Herbicidal rate of 5% or less (almost no effect)) | 5 (Herbicidal rate of 90% or more (almost completely withered)) | 4 (Herbicidal rate of 70% or more and less than 90%) | 5 (Herbicidal rate of 90% or more (almost completely withered)) | 3 (Herbicidal rate of 40% or more and less than 70%) | 0 (Herbicidal rate of 5% or less (almost no effect)) | 2 (Herbicidal rate of 20% or more and less than 40%) | 3 (Herbicidal rate of 40% or more and less than 70%) | 3 (Herbicidal rate of 40% or more and less than 70%) | 4 (Herbicidal rate of 70% or more and less than 90%) |  |  |  | 
3 | CCCC(=O)Oc1c(C)nn(C)c(=O)c1-c1c(-c2ccc([N+](=O)[O-])cc2)sc2ccccc12 [1-152] | 0 (Herbicidal rate of 5% or less (almost no effect)) | 5 (Herbicidal rate of 90% or more (almost completely withered)) | 0 (Herbicidal rate of 5% or less (almost no effect)) | 2 (Herbicidal rate of 20% or more and less than 40%) | 0 (Herbicidal rate of 5% or less (almost no effect)) | 3 (Herbicidal rate of 40% or more and less than 70%) | 0 (Herbicidal rate of 5% or less (almost no effect)) | 0 (Herbicidal rate of 5% or less (almost no effect)) | 3 (Herbicidal rate of 40% or more and less than 70%) | 4 (Herbicidal rate of 70% or more and less than 90%) | 5 (Herbicidal rate of 90% or more (almost completely withered)) | 5 (Herbicidal rate of 90% or more (almost completely withered)) | 3 (Herbicidal rate of 40% or more and less than 70%) | 3 (Herbicidal rate of 40% or more and less than 70%) | 3 (Herbicidal rate of 40% or more and less than 70%) | 5 (Herbicidal rate of 90% or more (almost completely withered)) | 5 (Herbicidal rate of 90% or more (almost completely withered)) |  |  |  | 
4 | Cc1nn(C)c(=O)c(-c2c(-c3ccc(OC(F)F)cc3)sc3ccccc23)c1O [1-201] | 0 (Herbicidal rate of 5% or less (almost no effect)) |  | 3 (Herbicidal rate of 40% or more and less than 70%) | 5 (Herbicidal rate of 90% or more (almost completely withered)) |  | 4 (Herbicidal rate of 70% or more and less than 90%) | 3 (Herbicidal rate of 40% or more and less than 70%) |  | 5 (Herbicidal rate of 90% or more (almost completely withered)) |  |  | 1 (Herbicidal rate of 5% or more and less than 20%) | 5 (Herbicidal rate of 90% or more (almost completely withered)) | 3 (Herbicidal rate of 40% or more and less than 70%) | 5 (Herbicidal rate of 90% or more (almost completely withered)) |  | 5 (Herbicidal rate of 90% or more (almost completely withered)) | 5 (Herbicidal rate of 90% or more (almost completely withered)) | 4 (Herbicidal rate of 70% or more and less than 90%) | 4 (Herbicidal rate of 70% or more and less than 90%) | effect on southern crabgrass (F) (southern crabgrass): 0 (Herbicidal rate of 5% or less (almost no effect)); effect on velvetleaf (M) (velvetleaf [9]): 5 (Herbicidal rate of 90% or more (almost completely withered)); effect on green foxtail (G) (green foxtail [13]): 5 (Herbicidal rate of 90% or more (almost completely withered))
5 | Cc1nn(C)c(=O)c(-c2c(-c3ccc(OCC(F)F)cc3)sc3ccccc23)c1O [1-203] | 3 (Herbicidal rate of 40% or more and less than 70%) |  | 5 (Herbicidal rate of 90% or more (almost completely withered)) | 5 (Herbicidal rate of 90% or more (almost completely withered)) |  | 5 (Herbicidal rate of 90% or more (almost completely withered)) | 4 (Herbicidal rate of 70% or more and less than 90%) |  | 5 (Herbicidal rate of 90% or more (almost completely withered)) |  |  | 4 (Herbicidal rate of 70% or more and less than 90%) | 5 (Herbicidal rate of 90% or more (almost completely withered)) | 3 (Herbicidal rate of 40% or more and less than 70%) | 5 (Herbicidal rate of 90% or more (almost completely withered)) |  | 5 (Herbicidal rate of 90% or more (almost completely withered)) | 5 (Herbicidal rate of 90% or more (almost completely withered)) | 2 (Herbicidal rate of 20% or more and less than 40%) | 4 (Herbicidal rate of 70% or more and less than 90%) | effect on southern crabgrass (F) (southern crabgrass): 3 (Herbicidal rate of 40% or more and less than 70%); effect on velvetleaf (M) (velvetleaf [9]): 5 (Herbicidal rate of 90% or more (almost completely withered)); effect on green foxtail (G) (green foxtail [13]): 5 (Herbicidal rate of 90% or more (almost completely withered))
